Data: ChEMBL document CHEMBL4138131, “Design, synthesis, kinetic mechanism and molecular docking studies of novel 1-pentanoyl-3-arylthioureas as inhibitors of mushroom tyrosinase and free radical scavengers” (Eur J Med Chem, 2017)
Activity calls are given as the source filed them. No cut-off for these calls is given here.

T1: Tyrosinase (Agaricus bisporus, UniProt O42713)
T1 sequence (O42713 whole entry): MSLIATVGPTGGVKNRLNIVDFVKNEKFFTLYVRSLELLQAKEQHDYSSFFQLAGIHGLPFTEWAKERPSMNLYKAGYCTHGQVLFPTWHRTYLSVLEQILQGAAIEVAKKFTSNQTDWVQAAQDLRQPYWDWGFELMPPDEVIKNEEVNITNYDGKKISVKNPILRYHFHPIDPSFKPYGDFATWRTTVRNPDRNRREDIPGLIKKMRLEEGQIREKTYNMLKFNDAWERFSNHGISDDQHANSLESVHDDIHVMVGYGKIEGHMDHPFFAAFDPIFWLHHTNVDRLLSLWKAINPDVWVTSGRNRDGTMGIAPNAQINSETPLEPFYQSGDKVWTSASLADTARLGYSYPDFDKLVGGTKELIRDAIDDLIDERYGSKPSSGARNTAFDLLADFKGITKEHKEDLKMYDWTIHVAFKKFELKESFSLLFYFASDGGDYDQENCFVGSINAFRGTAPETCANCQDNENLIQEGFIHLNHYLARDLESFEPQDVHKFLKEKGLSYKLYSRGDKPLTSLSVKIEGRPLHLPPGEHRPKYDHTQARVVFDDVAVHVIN

T2: Tyrosinase (Agaricus bisporus) (UniProt O42713)
T2 sequence (whole entry): T1 sequence (O42713 whole entry)

B1: Tyrosinase (Agaricus bisporus), O42713 (protein)
chain: T1 sequence (O42713 whole entry)

What was measured:
[1] = molecular target: T1, Tyrosinase; experiment: Inhibition of mushroom tyrosinase using L-DOPA as substrate preincubated for 10 mins followed by substrate addition measured for 20 mins
[2] = Antioxidant activity assessed as DPPH radical scavenging activity at 100 ug/ml relative to control; type: functional
[3] = molecular target: T2, Tyrosinase (Agaricus bisporus); experiment: Non-competitive inhibition of mushroom tyrosinase assessed as 1/Vmax at 1.084 uM using L-DOPA as substrate preincubated for 10 mins followed by substrate addition measured up to 5 mins by Line-weaver Burk plot analysis
[4] = molecular target: T2, Tyrosinase (Agaricus bisporus); experiment: Non-competitive inhibition of mushroom tyrosinase assessed as 1/Vmax at 2.18 uM using L-DOPA as substrate preincubated for 10 mins followed by substrate addition measured up to 5 mins by Line-weaver Burk plot analysis
[5] = molecular target: T2, Tyrosinase (Agaricus bisporus); experiment: Non-competitive inhibition of mushroom tyrosinase assessed as 1/Vmax at 4.336 uM using L-DOPA as substrate preincubated for 10 mins followed by substrate addition measured up to 5 mins by Line-weaver Burk plot analysis
[6] = molecular target: T2, Tyrosinase (Agaricus bisporus); experiment: Non-competitive inhibition of mushroom tyrosinase assessed as 1/Vmax at 0.271 uM using L-DOPA as substrate preincubated for 10 mins followed by substrate addition measured up to 5 mins by Line-weaver Burk plot analysis
[7] = molecular target: T2, Tyrosinase (Agaricus bisporus); experiment: Potency index ratio of kojic acid IC50 to compound IC50 for inhibition of mushroom tyrosinase
[8] = molecular target: T1, Tyrosinase; experiment: Non-competitive inhibition of mushroom tyrosinase using L-DOPA as substrate preincubated for 10 mins followed by substrate addition measured up to 5 mins by Dixon plot analysis
[9] = molecular target: T2, Tyrosinase (Agaricus bisporus); experiment: Irreversible inhibition of mushroom tyrosinase at 0.271 to 4.336 uM using L-DOPA as substrate preincubated for 10 mins followed by substrate addition measured up to 5 mins by Line-weaver Burk plot analysis
[10] = molecular target: T2, Tyrosinase (Agaricus bisporus); experiment: Non-competitive inhibition of mushroom tyrosinase at 0.271 to 4.336 uM using L-DOPA as substrate preincubated for 10 mins followed by substrate addition measured up to 5 mins by Line-weaver Burk plot analysis
[11] = molecular target: T2, Tyrosinase (Agaricus bisporus); experiment: Non-competitive inhibition of mushroom tyrosinase assessed as 1/Vmax at 0.542 uM using L-DOPA as substrate preincubated for 10 mins followed by substrate addition measured up to 5 mins by Line-weaver Burk plot analysis
[12] = compound: CCCCC(=O)NC(=S)Nc1ccc(OC)cc1; experiment: Non-competitive inhibition of mushroom tyrosinase assessed as substrate Km at 0.271 uM using L-DOPA as substrate preincubated for 10 mins followed by substrate addition measured up to 5 mins by Line-weaver Burk plot analysis; conditions: Agaricus bisporus
[13] = compound: CCCCC(=O)NC(=S)Nc1ccc(OC)cc1; experiment: Non-competitive inhibition of mushroom tyrosinase assessed as substrate Km at 1.084 uM using L-DOPA as substrate preincubated for 10 mins followed by substrate addition measured up to 5 mins by Line-weaver Burk plot analysis; conditions: Agaricus bisporus
[14] = compound: CCCCC(=O)NC(=S)Nc1ccc(OC)cc1; experiment: Non-competitive inhibition of mushroom tyrosinase assessed as substrate Km at 0.542 uM using L-DOPA as substrate preincubated for 10 mins followed by substrate addition measured up to 5 mins by Line-weaver Burk plot analysis; conditions: Agaricus bisporus
[15] = compound: CCCCC(=O)NC(=S)Nc1ccc(OC)cc1; experiment: Non-competitive inhibition of mushroom tyrosinase assessed as substrate Km at 4.336 uM using L-DOPA as substrate preincubated for 10 mins followed by substrate addition measured up to 5 mins by Line-weaver Burk plot analysis; conditions: Agaricus bisporus
[16] = compound: CCCCC(=O)NC(=S)Nc1ccc(OC)cc1; experiment: Non-competitive inhibition of mushroom tyrosinase assessed as substrate Km at 2.18 uM using L-DOPA as substrate preincubated for 10 mins followed by substrate addition measured up to 5 mins by Line-weaver Burk plot analysis; conditions: Agaricus bisporus

Molecule | IC50 [1] [µM] | Activity [2] | other results
CCCCC(=O)NC(=S)Nc1cccc(Cl)c1Cl | 7.75 | inactive | –
CCCCC(=O)NC(=S)Nc1ccc([N+](=O)[O-])cc1 | 7.99 | inactive | –
CCCCC(=O)NC(=S)Nc1c(C)cc(C)cc1C | 19.7 | inactive | –
CCCCC(=O)NC(=S)Nc1ccc(Cl)cc1 | 2.32 | inactive | –
CCCCC(=O)NC(=S)Nc1cccc([N+](=O)[O-])c1 | 16.6 | inactive | –
CCCCC(=O)NC(=S)Nc1c(Br)cc(F)cc1Br | 19.5 | inactive | –
CCCCC(=O)NC(=S)Nc1ccc(OC)cc1 | 1.57 | 80% | 1/Vmax [3]: 90500 deltaA/s; 1/Vmax [4]: 110000 deltaA/s; 1/Vmax [5]: 186000 deltaA/s; 1/Vmax [6]: 28600 deltaA/s; Ratio IC50 [7]: 15; Ki [8]: 1.1 µM; inhibition [9]: Active; inhibition [10]: Active; 1/Vmax [11]: 52400 deltaA/s
CCCCC(=O)NC(=S)Nc1ccc(Br)cc1F | 6.46 | inactive | –
CCCCC(=O)NC(=S)Nc1ccc(Br)cc1 | 3.37 | inactive | –
CCCCC(=O)NC(=S)Nc1ccc([N+](=O)[O-])cc1[N+](=O)[O-] | 10.1 | inactive | –
B1 | – | – | Km [12]: 389 µM; Km [13]: 389 µM; Km [14]: 389 µM; Km [15]: 389 µM; Km [16]: 389 µM
